Data published in patent US20260345603A1, “PRMT5 INHIBITORS” (Beijing Earthwise Technology Co., Ltd., priority 2022, published 2026).
Like-named read-outs stand apart in the source and are kept apart here.

Assays:
Format in all cases: cell-based
[1] = tested on: HCT116^MTAP Deletion cells; assay: Anti-proliferation assay on cells (CTG, 10 days), HCT116 MTAP Deletion; conditions: Homo sapiens
Protocol: (§1) HCT116^MTAD Deletion cells were from Pharmaron (China); HCT116 cells were from ATCC; McCoy's 5A medium was purchased from Invitrogen (USA); penicillin-streptomycin and fetal bovine serum were purchased from Gibco (USA); a 384-well plate was purchased from PerkinElmer (USA); and Cell-Titer Glo reagent was purchased from Promega (USA).
(§2) Compound dissolution: All the compounds were dissolved in dimethyl sulfoxide (DMSO) and then stored. The compounds were stored at room temperature in a dry condition for 3 months for short term storage or at −20 °C for long term storage.
(§3) The cells were cultured strictly in accordance with ATCC requirements. The cell culture medium (McCoy's 5A medium+10% fetal bovine serum+1% penicillin+streptomycin) was transferred to a 15 mL centrifuge tube and centrifuged at 1000 rpm for 5 min. The supernatant was removed. The cells were resuspended with complete culture medium, inoculated into a culture dish at the required density, and cultured in an incubator at 37 °C, 95% humid air, and 5% carbon dioxide. The culture medium was replenished or the cells were passaged every 2-3 days depending on the cell growth condition.
(§4) When the confluency of cells in the culture dish reached about 90%, the cells were washed twice with PBS, and then treated with trypsin to become single cells. The cells were counted, and 40 μl of the cells was inoculated into each well of a 384-well plate (50 cells/well). The plate was equilibrated at 37 °C and 5% carbon dioxide for 10 to 15 minutes. The compounds were injected into the 384-well plate using Echo550, and positive control and negative control (0.1% DMSO) were set up. Each compound was subjected to a 3-fold dilution, resulting in 10 concentration gradients, in duplicate, and the content of DMSO was 0.1%. The 384-well plate was incubated in a cell culture incubator for 10 days.
(§5) Then, 40 μl of cell proliferation assay reagent (CTG) was added to the 384-well plate, and the plate was shaken to mix well. Then, the 384-well plate was incubated at 37 °C and 5% carbon dioxide in the dark for 30 minutes. The data were read using the Envision multifunctional microplate reader. […] According to the different drug concentrations and their corresponding inhibition rates, the GI50 curve was drawn using GraphPad 8.0 software. The data were analyzed, and the final GI50 value was obtained.

[2] = tested on: HCT116 cells (HCT116^MTAP WT); assay: Anti-proliferation assay on cells (CTG, 10 days), HCT116 (MTAP WT); conditions: for Selectivity multiple of HCT116^MTAP WT GI50/HCT116^MTAP Deletion GI50: ratio HCT116 MTAP WT GI50 / HCT116 MTAP Deletion GI50; for selectivity (HCT116 vs HCT116^MTAP Deletion GI50): 14400 min; for GI50: Homo sapiens, HCT-116, HCT116 (MTAP WT)
Protocol: as §1, §2, §3, §4, §5

[3] = target: T1, cellular SDMA in HCT116^MTAP Deletion cells (Homo sapiens, UniProt O14744); assay: In-Cell Western Assay of cellular SDMA, HCT116 MTAP Deletion; conditions: 96 hours, read-out: SDMA inhibition IC50 in HCT116^MTAP Deletion
T1 construct: in-cell Western of symmetric dimethylarginine
From the text: HCT116^MTAPD Deletion cells were from Horizon; HCT116 cells were from ATCC; RPMI-1640 medium was purchased from ATCC (USA); penicillin-streptomycin was purchased from Gibco (USA); fetal bovine serum was purchased from ExCell; 96-well plate was purchased from Corning (USA); Symmetric Di-Methyl Arginine Motif [sdme-RG]antibody was purchased from CST (USA); IRDye 800CW Goat anti-Rabbit IgG secondary antibody was purchased from LI-COR (USA), and CellTag 700 stain was purchased from LI-COR (USA).
Compound dissolution: All the compounds were dissolved in dimethyl sulfoxide (DMSO) and then stored. The compounds were stored at −20 °C for long term storage.
The cells were cultured strictly in accordance with ATCC requirements. The cell culture medium (RPMI-1640 medium+10% serum+1% penicillin+streptomycin) was transferred to a 15 mL centrifuge tube and centrifuged at 1000 rpm for 5 min. The supernatant was removed. The cells were resuspended with complete culture medium, inoculated into a culture dish at the required density, and cultured in an incubator at 37 °C, 95% humid air, and 5% carbon dioxide. The culture medium was replenished or the cells were passaged every 2-3 days depending on the cell growth condition.
When the confluency of cells in the culture dish reached about 90%, the cells were washed twice with PBS, and then digested with trypsin. 100 μl of the cells was inoculated into each well of a 96-well plate (800 cells/well). The plate was incubated overnight in a 37 °C and 5% CO2 incubator. 50 μL of 3× final concentration of a compound was added to the cell culture plate. Each compound was subjected to a 3-fold dilution, resulting in 10 concentration gradients, in duplicate, and the final concentration of DMSO was 0.5%. The plate was incubated in a 37 °C and 5% CO2 incubator for 96 hours.
150 μL of 8% paraformaldehyde was added to each well, and the plate was incubated at room temperature for 15 minutes. The supernatant was discarded. The plate was washed with PBS, and 200 μL of freshly prepared 1× Permeabilization buffer was added to each well. The plate was incubated at room temperature for 30 minutes. The supernatant was discarded. 200 μL of 1× Blocking buffer was added to each well, and the plate was incubated at room temperature for 2 hours. The supernatant was discarded. 50 μL of primary antibody (CST, 1× Incubation buffer 1:500 dilution) was added to each well, and the plate was incubated at 4 °C overnight. The supernatant was discarded. 250 μL of 1× Washing buffer was added to each well, and the plate was washed three times. 50 μL of secondary antibody (IRDye 800CW Goat anti-Rabbit IgG and CellTag 700 dye, 1:800 and 1:500 diluted in Incubation buffer) was added to each well, and the plate was incubated at room temperature for 1 hour. The supernatant was discarded. The plate was washed with 1× Washing buffer. Signals were detected using Licor Odyssey CLX. […] According to the different drug concentrations and their corresponding inhibition rates, the IC50 curve was drawn using GraphPad 8.0 software. The data were analyzed, and the final IC50 value was obtained.

[4] = HCT-116, 240 h, anti-proliferative activity, HCT116 MTAP Deletion, 10 days, class symbols, read-out: HCT116^MTAP Deletion GI50
[5] = HCT-116, HCT116 MTAP Deletion, read-out: GI50 for HCT116^MTAP Deletion

T1 sequence (O14744 whole entry, stated change not applied): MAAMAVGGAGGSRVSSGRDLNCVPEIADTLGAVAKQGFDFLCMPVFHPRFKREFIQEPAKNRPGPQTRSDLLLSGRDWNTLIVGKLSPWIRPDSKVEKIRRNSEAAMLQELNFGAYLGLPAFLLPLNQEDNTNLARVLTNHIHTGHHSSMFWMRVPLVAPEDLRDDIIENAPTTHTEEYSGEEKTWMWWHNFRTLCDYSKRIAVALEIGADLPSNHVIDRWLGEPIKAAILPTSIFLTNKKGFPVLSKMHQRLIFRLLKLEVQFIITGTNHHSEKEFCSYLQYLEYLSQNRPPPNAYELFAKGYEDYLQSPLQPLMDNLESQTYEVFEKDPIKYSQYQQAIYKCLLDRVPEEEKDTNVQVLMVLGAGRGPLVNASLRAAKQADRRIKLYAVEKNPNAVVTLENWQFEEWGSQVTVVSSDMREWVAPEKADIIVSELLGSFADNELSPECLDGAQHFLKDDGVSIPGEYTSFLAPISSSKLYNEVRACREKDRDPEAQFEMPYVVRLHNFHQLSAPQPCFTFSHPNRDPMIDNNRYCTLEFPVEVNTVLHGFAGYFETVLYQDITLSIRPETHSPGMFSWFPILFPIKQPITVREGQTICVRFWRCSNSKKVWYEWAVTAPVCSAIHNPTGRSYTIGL
T1 sequence (Q9BQA1 whole entry partner): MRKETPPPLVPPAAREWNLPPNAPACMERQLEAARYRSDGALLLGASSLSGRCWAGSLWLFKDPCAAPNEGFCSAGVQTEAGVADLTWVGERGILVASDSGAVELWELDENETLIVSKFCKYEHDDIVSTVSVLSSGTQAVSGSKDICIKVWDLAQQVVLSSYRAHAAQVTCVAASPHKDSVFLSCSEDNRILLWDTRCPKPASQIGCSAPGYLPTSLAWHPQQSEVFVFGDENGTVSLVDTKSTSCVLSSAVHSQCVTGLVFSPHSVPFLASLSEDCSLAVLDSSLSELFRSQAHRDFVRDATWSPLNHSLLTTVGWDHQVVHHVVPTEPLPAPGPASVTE

Structure (SMILES)	GI50 [1, 4]	further results
CN(C(=O)C(=O)Nc1cnc(N)c2c1cnn2C)C1COc2cc(C(F)(F)F)ccc21 (stereo not drawn) [Example 89]	≤ 10 nM	Selectivity multiple of HCT116^MTAP WT GI50/HCT116^MTAP Deletion GI50 [2]: 160
Cc1cc(NC(=O)C(=O)N(Cc2ccc(C(F)(F)F)cn2)C(C)(C)C)cnc1N [Example 33]	1000 to 10000 nM	GI50 [1, 5]: ≤ 100 nM; selectivity (HCT116 vs HCT116^MTAP Deletion GI50) [2]: more than 300 times; GI50 [2]: 1 to 10 µM
CN(C(=O)C(=O)Nc1cnc(N)c2c1cnn2C)C1COCc2cc(-c3ccnn3C)ccc21 (stereo not drawn) [Example 156-P1]	–	IC50 [3]: ≤ 10 nM
CN(C(=O)C(=O)Nc1cnc(N)c2c1cnn2C)C1COCc2nc(C(F)(F)F)ccc21 (stereo not drawn) [Example 152-P2]	–	IC50 [3]: 10 to 100 nM
COc1ncc(NC(=O)C(=O)N(Cc2ccc(C(F)(F)F)cn2)[C@H](C)c2ncccn2)cc1C(N)=O [Example 25]	10 to 100 nM	–
Cc1cc(NC(=O)C(=O)N(Cc2ccc(C(F)(F)F)cn2)CC2CC2)cnc1N [Example 15]	10 to 100 nM	–
Cn1ncc2c(NC(=O)C(=O)N(Cc3ccc(C(F)(F)F)cn3)CC3CC3)cnc(N)c21 [Example 43]	≤ 10 nM	–
CN(C(=O)C(=O)Nc1cnc(N)c2c1cnn2C)C1COc2cc(-c3cnc(C4CC4)s3)ccc21 (stereo not drawn) [Example 236]	≤ 10 nM	–
[2H]C([2H])([2H])N(C(=O)C(=O)Nc1cnc(N)c2c1cnn2C)C1COCc2cc(C(F)(F)F)ccc21 (stereo not drawn) [Example 109]	≤ 10 nM	–
CN(C(=O)C(=O)Nc1cnc(N)c2c1cnn2C)C1COCc2cc(Br)ccc21 (stereo not drawn) [Example 94]	≤ 10 nM	–
Cc1cc(NC(=O)C(=O)N(Cc2ccc(C(F)(F)F)cn2)CC2CCCC2)cnc1N [Example 17]	10 to 100 nM	–
C[C@H](c1ncccn1)N(Cc1ccc(C(F)(F)F)cn1)C(=O)C(=O)Nc1cnc(N)c2c1cnn2C [Example 30]	10 to 100 nM	–
CN(C(=O)C(=O)Nc1cnc(N)c2c1cnn2C)C1COCc2cc(Cl)c(Cl)cc21 (single isomer, unassigned) [Example 163-P1]	–	Selectivity multiple of HCT116^MTAP WT GI50/HCT116^MTAP Deletion GI50 [2]: 94
CCC(C)N(Cc1ccc(C(F)(F)F)cn1)C(=O)C(=O)Nc1cnc(OC)c(C(N)=O)c1 (single isomer, unassigned) [Example 5-P1]	10 to 100 nM	–
Cn1ncc2c(NC(=O)C(=O)N(Cc3ccc(C(F)(F)F)cn3)CC3CCC3)cnc(N)c21 [Example 4]	10 to 100 nM	–
Cc1cc(NC(=O)C(=O)N(C)C2COCc3cc(C4=CCOCC4)ccc32)cnc1N (racemic) [Compound 162]	100 to 1000 nM	–
Nc1ncc(NC(=O)C(=O)N(Cc2ccc(C(F)(F)F)cn2)CC2CCC2)c2c1COC2 [Example 41]	100 to 1000 nM	–
C[C@H](c1ncccn1)N(Cc1ccc(C(F)(F)F)cn1)C(=O)C(=O)Nc1cnc(N)c2cncn12 [Example 38]	> 10000 nM	–
CN(C(=O)C(=O)Nc1cnc(N)c2c1cnn2C)C1COCc2cc(C(F)(F)F)ccc21 (stereo not drawn) [Example 106-P1]	10 to 100 nM	–

Structure (SMILES)	GI50 [1, 4]	further results
Cc1cc(NC(=O)C(=O)N(Cc2ccc(C(F)(F)F)cn2)C2CC2)cnc1N [Example 12]	100 to 1000 nM	–
CN(C(=O)C(=O)Nc1cnc(N)c2c1cnn2C)C1COCc2cc(-c3ccc(C(F)(F)F)nc3)ccc21 (racemic) [Compound 221]	≤ 10 nM	–
Cc1cc(NC(=O)C(=O)N(Cc2ccc(C(F)(F)F)cn2)C(C)c2cscn2)cnc1N (single isomer, unassigned) [Example 19-P1]	10 to 100 nM	–
CCOc1ccc(CN(C(=O)C(=O)Nc2cnc(N)c(C)c2)[C@H](C)c2ncccn2)nn1 [Example 35]	10 to 100 nM	–
CN(C(=O)C(=O)Nc1cnc(N)c2c1cnn2C)C1COCc2cc(Cl)c(Cl)cc21 (stereo not drawn) [Example 163]	≤ 10 nM	–
Cc1cc(NC(=O)C(=O)N(Cc2ccc(C(F)(F)F)cn2)CC(C)C)cnc1N [Example 37]	10 to 100 nM	–
CN1CC=C(c2ccc3c(c2)COCC3N(C)C(=O)C(=O)Nc2cnc(N)c3c2cnn3C)CC1 (stereo not drawn) [Example 160]	10 to 100 nM	–
CN(C(=O)C(=O)Nc1cnc(N)c2c1cnn2C)C1COCc2cc(-c3ccnn3C)ccc21 (stereo not drawn) [Example 137]	≤ 10 nM	–
CN(C(=O)C(=O)Nc1cnc(N)c2c1cnn2C)C1COCc2c1ccc(Cl)c2Cl (racemic) [Compound 168]	≤ 10 nM	–
C[C@H](c1ncccn1)N(Cc1ccc(C(F)(F)F)cn1)C(=O)C(=O)Nc1cnc(N)c2c1CCCC2 [Example 31]	100 to 1000 nM	–
CN(C(=O)C(=O)Nc1cnc(N)c2c1cnn2C)C1COc2cc(-c3ccnn3C)ccc21 (stereo not drawn) [Example 161]	≤ 10 nM	–
C[C@H](c1ncccn1)N(Cc1ccc(C(F)(F)F)cn1)C(=O)C(=O)Nc1cnc(N)c2cnn(C)c12 [Example 34]	100 to 1000 nM	GI50 [1, 5]: ≤ 100 nM; selectivity (HCT116 vs HCT116^MTAP Deletion GI50) [2]: more than 300 times; GI50 [2]: 1 to 10 µM
Cc1cc(N)ncc1NC(=O)C(=O)N(Cc1ccc(C(F)(F)F)cn1)[C@H](C)c1ncccn1 [Example 26]	100 to 1000 nM	–
CCC(C)N(Cc1ccc(OCC(F)(F)F)nn1)C(=O)C(=O)Nc1cnc(N)c(C)c1 (stereo not drawn) [Example 63]	100 to 1000 nM	–
COC[C@H](C)N(Cc1ccc(C(F)(F)F)cn1)C(=O)C(=O)Nc1cnc(N)c(C)c1 [Example 9]	10 to 100 nM	–
Cc1ncc(-c2ccc3c(c2)COCC3N(C)C(=O)C(=O)Nc2cnc(N)c3c2cnn3C)s1 (racemic) [Compound 181]	≤ 10 nM	–
Cc1cc(/C=C/C(=O)N(Cc2ccc(C(F)(F)F)cn2)[C@H](C)c2ncccn2)cnc1N [Example 6]	> 10000 nM	–
Cc1cc(NC(=O)C(=O)N(Cc2ccc(C(F)(F)F)cn2)C2CCCC2)cnc1N [Example 11]	100 to 1000 nM	–
Cc1cc(NC(=O)C(=O)N(Cc2ccc(C(F)(F)F)cn2)C2CCC2)cnc1N [Example 13]	100 to 1000 nM	–
